Reference: patent US20190183939A1, “CELL THERAPY USING MIDBRAIN-TYPE NEURAL STEM CELLS TREATED WITH VITAMIN C” (INDUSTRY-UNIVERSITY COOPERATION FOUNDATION HANYANG …, priority 2017, published 2019)

Key:
[1] = tested on: cultures differentiated from VM-NSCs; assay: Differentiated cell survival/death, DNA damage and resistance against toxins; assay type: cell-based, rat
Procedure: (§1) The cell growth profile during NSC expansion with several cell passages was generated by counting the number of viable cells at the end of each passage. Cell expansion of each NSC passage was further estimated by the population doubling level (PDL, the level at which the number of cells is doubled), which was determined by log(N/NO)/log 2 (where N is the number of cells at the end of each passage; NO is the number of cells plated initially (1×10^5 cells/cm^2)). DA neuronal cell survival in the absence or presence of toxic insults (500-1000 uM of H2O2 or 6-OHDA) was determined by counting viable TH^+ cells after staining. General cell death and DNA damage were estimated by ethidium heterodimer 1 (EthD1) (Molecular Probes) and γH2AX staining, respectively.

[2] = tested on: TH+ DA neurons differentiated from VM-NSCs; assay: Co-expression of midbrain-specific markers in differentiated TH+ DA neurons; assay type: cell-based, rat; settings: P1 cultures treated with VC during expansion, D6
Procedure: Cultured cells and cryosectioned brain slices were fixed with 4% paraformaldehyde (PFA), and blocked for 40 minutes in blocking solution (Blocking solution: 1% BSA+0.3% Triton X-100). For 5hmC and 5mC staining, the fixed cells were incubated with 2 N HCl for 20 minutes before the blocking reaction. The samples were incubated overnight at 4° C. in the blocking solution containing the primary antibodies listed in Supplemental Table 1. Secondary antibodies tagged with Alexa 488 (1:200, Invitrogen, Carlsbad, Calif.) and Cy3 (1:200, Jackson Immunoresearch Laboratories, West Grove, Pa.) were applied. Stained samples were mounted in Vectashield medium containing 40,6-diamidino-2-phenylindole (DAPI; Vector Laboratories, West Grove, Pa.) and analysed under an epifluorescence (Leica, Wetzlar, Germany) or confocal microscope (Leica TSP SP5).
Immunostained cells were counted in 10-20 random areas of each culture coverslip using an eyepiece grid at a magnification of 200×. Data are expressed as the mean±SEM of three to eight independent cultures. For every figure, statistical tests are justified as appropriate. Statistical comparisons were made using Student's t-test (unpaired) or one-way ANOVA followed by Tukey's post hoc analysis using SPSS® Statistics 21; IBM Inc. The relevant n, P-values, and statistical analysis methods are indicated in each figure legend.

[3] = tested on: human TH promoter regions; assay: DIP-qPCR/ChIP-qPCR on human TH promoter; assay type: cell-based
Text: (§2) Foxa2 and Nurr1 binding sites were identified using the Jaspar database (http://jaspar.genereg.net/) using an 80% score threshold. Predicted Foxa2 and Nurr1 binding sites were coupled with phylogenetic footprinting to eliminate spurious predictions with specified position weight matrix (PWM) settings, as described in the following reference. [Sandelin, A., and Wasserman, W. W. (2004). Constrained binding site diversity within families of transcription factors enhances pattern discovery bioinformatics. Journal of molecular biology 338, 207-215] (Table 2). ChIP and DIP assays were carried out as described in the following reference. [Prolonged membrane depolarization enhances midbrain dopamine neuron differentiation via epigenetic histone modifications. Stem Cells 29, 1861-1873]. Briefly, chromatin or genomic DNA was sheared to an average of 200-500 bp in length using a sonication Bioruptor (BMS, Seoul, Korea) and immunoprecipitated using the antibodies listed in Table 1. Immunoprecipitated DNA fragments were collected using magnetic beads (Invitrogen), purified, and subjected to real-time PCR using the primers listed in Table 3. The comparative cycle threshold method was used to quantify the results. Data were normalized to the input DNA.

[4] = tested on: Foxa2 and Lmx1a promoters; assay: DIP-qPCR and ChIP-qPCR on Foxa2 and Lmx1a promoters; assay type: cell-based, rat
Text: as §2

TET = assay: Tet enzyme activity in nuclear fraction; assay type: biochemical, rat; settings: VC 200 μM, 4 days of proliferation, D0
Procedure: TET and JMJD3 activities were measured using Epigenase™ 5mC hydroxylase TET Activity/Inhibition Assay Kit and Epigenase™ JMJD3/UTX Demethylase Activity/Inhibition Assay Kit (Epigentek, Farmingdale, N.Y.), respectively. Briefly, cells from two 10 cm-dishes were harvested after 4 days of proliferation with or without VC (200 μM) treatment. Nuclear fractions were obtained from the cells using the EpiQuik nuclear extraction kit (Epigentek), and subjected to enzyme activity analyses.

VM-NSCs = assay: Cell growth curves and population doubling level during NSC expansion; assay type: cell-based, rat; settings: up to P1
Procedure: as §1

O=C1O[C@H]([C@@H](O)CO)C(O)=C1O [VC, L-ascorbic acid]
DA neurons died after exposure to H2O2 or 6-OHDA ([1]; 500 and 1000 μM for 8 hours at D8, VC during expansion): remarkably lower proportions | γH2AX foci, % cells with >3 foci ([1]; D12 as printed, VC during expansion): 24.3% | cell death (EthD-1+ dead cell counting) ([1]; differentiation D8, VC during NSC expansion and passaging): considerably reduced | TH+ DA neurons expressing Foxa2 [2]: 98% | TH+ DA neurons expressing Lmx1a [2]: 91% | TH+ DA neurons expressing Nurr1 [2]: 93% | H3K9m3/H3K27m3 levels in human TH promoter regions [3]: undetectable | levels of 5hmC at human TH promoter regions ([3]; two consensus Nurr1 binding sites, D6): enhanced | binding of Tet1, Jmjd3 and Jmjd2 proteins to Foxa2 and Lmx1a promoter regions ([4]; ChIP-qPCR, D0): increased binding | 5mC levels in Foxa2 promoter regions ([4]; MeDIP-qPCR, VC-treated NSCs): reduced | 5hmC in Foxa2 promoter regions ([4]; hMeDIP-qPCR, VC-treated NSCs): more abundant | Tet enzyme activity in nuclear fractions (TET): greatly enhanced | VM-NSC survival and proliferation (VM-NSCs): none of the anti-oxidant treatments tested, including VC, significantly altered
